Source: patent US11248229B2, “Inhibition of KMT2D for the treatment of cancer” (MEMORIAL SLOAN-KETTERING CANCER CENTER, priority 2016, dated 2022)

Columns and labels:
[1] = system: enhancers or promoters of canonical ER target genes in T47D and MCF7 cells; test: ChIP-qPCR of ER, FOXA1, PBX1 and H3K4me1/2 occupancy at ER target genes; assay type: cell-based, human; settings: DMSO or BYL719 for 24 h
Description: (§1) Cells were crosslinked with 1% paraformaldehyde added directly to the culture medium to a final concentration of 1% and incubated at room temperature for 15 minutes. The crosslinked cells were quenched with ice-cold glycine for 5 minutes, washed with PBS and collected. The cells were then lysed with SDS lysis buffer (10 ml of 1% SDS, 10 mM EDTA, 50 mM Tris-HCl, pH 8.1) containing protease and phosphatase inhibitors for 15 minutes prior to sonication. Cells were sonicated in 10-s pulses for a total of 10 min. The sheared chromatin was diluted with ChIP Dilution buffer (0.01% SDS, 1.1% Triton X-100, 1.2 mM EDTA, 16.7 mM Tris-HCl, pH 8.1, 167 mM NaCl) and incubated overnight with Protein G Dynabeads (Thermo Fisher Scientific), which were pre-incubated with specific antibodies. ChIP antibodies to the following proteins were used: FOXA1 (ab5089) Abcam, PBX1 (H00005087-MO1) from Abnova, ER alpha (sc-543) from Santa Cruz and rabbit KMT2D homemade antibody which was generated by Eurogentec (third bleed) and affinity purified against GRARLKSTASSIC peptide (SEQ ID NO: 36). […]

T47D cells = test: ER and FOXA1 ChIP-seq upon BYL719 treatment; assay type: cell-based, human
Description: Cells were crosslinked with 1% paraformaldehyde added directly to the culture medium to a final concentration of 1% and incubated at room temperature for 15 minutes. The crosslinked cells were quenched with ice-cold glycine for 5 minutes, washed with PBS and collected. The cells were then lysed with SDS lysis buffer (10 ml of 1% SDS, 10 mM EDTA, 50 mM Tris-HCl, pH 8.1) containing protease and phosphatase inhibitors for 15 minutes prior to sonication. Cells were sonicated in 10-s pulses for a total of 10 min. […]
Paired ends 36 bp sequencing was performed at the Genomics Core of Memorial Sloan Kettering Cancer Center using HiSeq (Illumina). Reads were first processed with Trimmomatic to remove the adaptor sequences and bases with quality scores below 20 and reads with less than 30 remaining bases were discarded^34. Trimmed reads were then aligned to hg19 human genome with the bowtie aligner^35. […] To find a set of peaks that are reproducible across the two biological replicates of a given cell condition, the per-replicate P-value of each peak was calculated using only the read count at the peak from the individual replicate and estimated the irreproducible discovery rate (IDR)^37 from the two sets of P-values that the replicates produced. […]
Differentially accessible peaks from combined atlas were identified with […] by counting all read ends overlapping peaks in each condition. […]

[2] = system: ER-dependent genes in T47D and MCF7 cells; test: RT-qPCR of ER-dependent genes in hormone depleted cells; assay type: cell-based, human; settings: cells treated with BYL719 (1 μM) for 24 h
Text: All cell lines were obtained from ATCC and used at low passages. T47D cells were maintained in RPMI 1640 with 10% FBS, 1% L-glutamine and 1% penicillin-streptomycin. MCF7 cells were maintained in DF-12 DMEM Dulbecco medium with 10% FBS, 1% L-glutamine and 1% penicillin-streptomycin. HEK 293T cells were maintained in DMEM Dulbecco medium supplemented with 10% FBS, 1% L-glutamine and 1% penicillin-streptomycin. For RNA analysis, MCF7 cells or T47D cells underwent hormonal starvation. MCF7 and T47D were cultured for 3 days in phenol-red-free DF12 DMEM and phenol-red-free RPMI respectively, media was supplemented with 5% charcoal/dextran-treated FCS. Cells were induced with E2 (100 nM), BYL719 (1 μM) or vehicle (DMSO) for 24 hours.
Total RNA was extracted from patient biopsies tissue using TRIzol (Life Technologies) and treated with DNAse before cDNA synthesis. cDNA synthesis was performed using the Bio-Rad cDNA synthesis kit according to the manufacturer's instructions. RNA was isolated from cells using the QIAGEN RNeasy kit. The qPCR SYBR green mix (Applied Biosystems) was used to amplify specific cDNA fragments with the oligonucleotides listed in Extended figure using the ViiA™ Real Time PCR system (Applied Biosystems). The data were analyzed by the change-in-threshold (2^−ΔΔCT) method using Actin or GAPDH as a housekeeping genes to obtain relative RNA expression. […]

MCF7 xenografts = test: MCF7 inducible shRNA in vivo xenograft; set-up: species or system athymic Foxn1nu mice
Description: Animals were maintained based on the institutional guidelines of Memorial Sloan Kettering Cancer Center (Protocol number 12-10-019). 6×10^6 MCF7 cells in 1:1 DF12 media/Matrigel (Corning) were injected subcutaneously into four to six week old female athymic Foxn1^nu mice. Mice were randomized when tumors reached ˜[…] of volume. 5 mice, 10 tumors were then treated with BYL719 (25 mg×kg^−1 in 0.5%) in carboxymethylcellulose (Sigma) daily for the indicated times. Tumors were collected at the end of the experiments, two to four hours after the last treatment.
Two way t-tests were performed using GraphPad Prism (GraphPad Software), P-values are indicated in the respective graphs. All cellular experiments were repeated at least three times. The in vivo experiments contained 10 tumors for each treatment arm and the sample size was chosen to reflect a difference in means of 20% with a power of 90%. Before the commencement of the in vivo experiments, animals were measured and randomized in groups with similar average tumor volume. Bioinformatics statistics are indicated in the respective method descriptions.

T47D and MCF7 cells = test: MTT cell viability assay; assay type: cell-based, human; settings: BYL719 for 5 days
Text: When indicated, MCF7 or T47D cells were transduced with lentiviruses expressing empty vector (pLKO. 1) or an shRNA against KMT2D (pLKO. 1) (disclosed in Table 1) or shRNA against FOXA1, shFOXA1 #1 TRCN0000014882; shFOXA1 #2: TRCN0000014880; or shRNA against PBX1, shPBX1 #1: TRCN0000020390; shPBX1 #2: TRCN0000020391). When indicated, MCF7 cells were transduced with pTRIPZ vectors (TRE-RFP-miR30/shRNA-UBC-IRES-PURO) targeting PBX1 or FOXA1 knockdown upon doxycycline administration. When indicated, MCF7 cells were transduced with LT3REPIR (pRRL) vector (T3G-dsRED-mirE/shRNA-PGK-PURO-IRES-rtTA3) targeting KMT2D knockdown upon doxycycline administration. For lentiviral production, 293T cells were transfected with pCMV-VSVG, pCMV-dR8.2 and the plasmid of interest using lipofectamine 3000 according to the manufacture's protocol.
BYL719 was obtained from the Stand Up to Cancer (SU2C) pharmacy. BYL719 was dissolved in DMSO for in vitro experiments. The MTT assay was used to measure cell viability. Briefly, 5000 cells were seeded in 96 well plates, treated with BYL719 for 5 days and assayed using 0.25% MTT (Sigma) and 50 mM sodium succinate (Sigma) for 3 hours. After the formazan crystals were dissolved with DMSO, the absorbance was measured at 570 nm of wavelength. Doxycycline was purchased from Sigma.

KMT2D = test: ChIP-qPCR time course for KMT2D, H3K4me1 and H3K4me2 upon BYL719; assay type: cell-based, human; settings: BYL719 (1 μM) for 2, 4, 8, 12 and 24 h
Description: as §1

[3] = system: breast tumor samples from patients; test: ATAC-seq of paired breast tumor biopsies from patients treated with BYL719; assay type: in vivo, human; settings: paired tumor biopsies prior to therapy and on-therapy
Text: Starting from fastq files containing ATAC-seq paired-end reads, sequencing adaptors were removed using Trimmomatic^34. Trimmed reads were mapped to the hg19 human genome using Bowtie2^35 allowing at most 1 seed mismatch and keeping only uniquely aligned reads. Duplicates were removed using Picard (http://picard.sourceforge.net). For peak-calling the read start sites were adjusted (reads aligning to the +/−strand were offset by +4 bp/−5 bp, respectively) to represent the center of the transposon binding-event, as described in Buenrostro et al.^21 For each samples, ATAC-seq was run on two biological replicates. Peak calling was performed on each condition individually by pooling reads from biological replicates and using MACS2^36 with a permissive P-value threshold (−p 1e−2). To find a set of peaks that are reproducible across the two biological replicates of a given cell condition, we calculated the per-replicate P-value of each peak using only the read count at the peak from the individual replicate and estimated the irreproducible discovery rate (IDR)^37 from the two sets of P-values that the replicates produced. […] Differentially accessible peaks from this atlas were identified with edgeR^38 by counting all read ends overlapping peaks in each condition. edgeR was run with default settings, a fold-change threshold of 2 and FDR <0.01. […]

Compound: Cc1nc(NC(=O)N2CCC[C@H]2C(N)=O)sc1-c1ccnc(C(C)(C)C(F)(F)F)c1 [BYL719]
- binding of ER, FOXA1 and PBX1 to enhancers or promoters of canonical ER target genes [1]: significantly enhanced
- co-occupancy of ER and FOXA1 at specific target loci (T47D cells; BYL719 (1 μM) for 24 h): increased co-occupancy of ER and FOXA1
- ER binding events (ER ChIP-seq) (T47D cells; DMSO or BYL719 for 24 h): induced differential ER binding
- expression of ER-dependent genes in the absence of KMT2D [2]: decrease of expression
- antitumor effect of silencing KMT2D in the presence of BYL719 (MCF7 xenografts; MCF7 inducible shKMT2D xenografts, BYL719 daily 25 mg/kg): enhanced
- anti-tumor activity of BYL719 with FOXA1 silencing (MCF7 xenografts; MCF7 xenografts, inducible shFOXA1, BYL719 daily 25 mg/kg): markedly increased the anti-tumor activity
- cell viability, KMT2D knockdown combined with BYL719 (T47D and MCF7 cells; ER-positive cell lines): greater effect
- viability of cells treated with BYL719 upon FOXA1 and PBX1 silencing (T47D and MCF7 cells; constitutive or inducible shRNAs): decrease the viability
- KMT2D recruitment at regulatory regions (KMT2D): peaked at early hours
- abundance of H3K4me1/2 occupying regulatory regions (KMT2D): elevated at the same time points
- chromatin accessibility in regions responsive to PI3K inhibition [3]: increase in chromatin accessibility
